{
  "source": "patent US20240148671A1",
  "about": "“METHODS FOR IMPROVING POULTRY HEALTH” (CORNELL UNIVERSITY, priority 2021, published 2024)",
  "key": {"hemoglobin (Hb)": {"test_system": "hemoglobin (Hb)", "test": "Blood hemoglobin (Hb) after intra-amniotic administration", "type": "in vivo, Gallus gallus", "conditions": "intra-amniotic 1 mL/egg on day 17; blood at hatch (day 21); mean ± SEM", "method": "(§1) The pure resveratrol and pterostilbene were individually diluted in 18 MΩ H2O. The intra-amniotic administration followed the methodology previously described. On the 17th day of embryonic development, the eggs with viable embryos (n=60) were randomly allocated into 6 groups (n=10) with a similar weight frequency distribution. For the intra-amniotic treatment, 1 mL of solution per egg was injected into the amniotic fluid (via candling) with the aid of a 21-gauge needle. After the procedure, the injection sites were sealed with cellophane tape, and the eggs were distributed into six groups: (1) no injection; (2) 18 MΩ H2O; (3) 5% inulin; (4) 5% resveratrol; (5) 5% pterostilbene; and (6) synergistic: 4.75% resveratrol and 0.25% pterostilbene. […] The eggs were equally distributed in each incubator location to reduce possible allocation bias. Upon hatching (21 days), the hatchlings were euthanized by CO2 exposure, and the blood, liver, heart, pectoral muscle, small intestine and cecum were obtained.\nBlood was collected using micro-hematocrit heparin-coated capillary tubes (Fisher Scientific, Waltham, MA, USA). The hemoglobin (Hb) concentration was assessed spectrophotometrically using the QuantiChrom™ Hb Assay (DIHB-250, BioAssay Systems, Hayward, CA, USA) and according to specific instructions."}, "[1]": {"test": "Fe and Zn content in the serum and liver samples", "type": "in vivo, Gallus gallus", "conditions": "intra-amniotic 1 mL/egg on day 17, at hatch, mean ± SEM, n=8", "method": "as §1\nThe serum (50 μL) and liver (0.5 g) samples were mixed with 3.0 mL of a 60:40 (v/v) solution of nitric acid (HNO3) and perchloric acid (HClO4) and incubated overnight. After this, the samples were heated for 2 hours at 120° C. and added to 0.25 mL of 40 μg/g yttrium (internal standard), and the block temperature was increased to 145° C. for 2 h and then 190° C. for 10 min. At the end of these procedures, the samples were cooled, diluted to a total volume of 20 mL, mixed and transferred into autosampler tubes for analysis (inductively coupled plasma atomic emission spectrometer) (Thermo, Franklin, MA, USA)."}, "[2]": {"test": "Body weight, cecum weight and cecum:body weight ratio", "type": "in vivo, Gallus gallus", "conditions": "intra-amniotic 1 mL/egg on day 17; at hatch (day 21); mean ± SEM, n=8", "method": "as §1"}, "[3]": {"test": "Glycogen in pectoral muscle", "type": "in vivo, Gallus gallus", "conditions": "intra-amniotic 1 mL/egg on day 17, at hatch, mean ± SEM, n=8", "method": "as §1"}, "Liver Ferritin": {"test_system": "Liver Ferritin", "test": "Liver ferritin", "type": "in vivo, Gallus gallus", "conditions": "intra-amniotic 1 mL/egg on day 17, at hatch, mean ± SEM, n=5", "method": "as §1"}, "[4]": {"test_system": "duodenal tissue (villi, crypts, goblet cells)", "test": "Morphometric examination of duodenal tissue", "type": "in vivo, Gallus gallus", "conditions": "intra-amniotic 1 mL/egg on day 17, at hatch, mean ± SEM, n=5; for Depth of Crypts (μm) / Mucus Layer Width (μm) / Villus Diameter (μm) / Villus Length (μm): duodenum; for Crypt Goblet Cell Number / Goblet Cell Diameter (μM) / Villus Goblet Cell Type Number, Acidic / Villus Goblet Cell Type Number, Mixed / Villus Goblet Cell Type Number, Neutral: small intestine", "method": "as §1\nVillus epithelium analysis was conducted as previously published. The duodenal samples were soaked in buffered formaldehyde (4% (v/v)), dehydrated, cleared and embedded in paraffin. Numerous sections were cut with a thickness of 5 μm and put on slides. The sections were deparaffinized in xylene, after which they were rehydrated in a series of graded alcohol. Finally, the slides were stained with Alcian Blue-periodic acid-Schiff and investigated under a light microscopy. The variables were assessed (light microscope, EPIX XCAP software, standard version, Olympus, Waltham, MA, USA) for the following: villus length, villus diameter, depth of crypts, goblet cell diameter, crypt goblet cell number and villus goblet cells type number (acidic, neutral or mixed). Four segments for each biological sample and five biological samples per treatment group were examined. The goblet cells were enumerated at 10 villi/sample, and the means were calculated for statistical analysis."}, "[5]": {"conditions": "absorption in the gut lumen, literature refs 11, 12 (Kapetanovic et al.; Walle), cited from earlier work"}, "cecal microbiome": {"test_system": "cecal microbiome", "test": "16S rRNA gene sequencing of the cecal microbiota", "type": "in vivo, Gallus gallus", "conditions": "cecal content at hatch, n=5; 5% inulin vs all other experimental groups (p<0.01); 5% pterostilbene vs 18 MΩ H2O control (p<0.05); stilbene groups among each other", "method": "as §1\nAs was formerly described, cecal samples were used to extract microbial genomic DNA (PowerSoil DNA isolation kit, MoBio Laboratories Ltd., Carlsbad, CA, USA). […] The PCR products were purified (Beckman Coulter, Atlanta, GA, USA) and quantified (Quant-iT PicoGreen dsDNA quantitation kit, Invitrogen, Carlsbad, CA, USA). […]\nThe 16S rRNA gene sequence analysis was performed using QIIME2 as previously described. The sequence reads were demultiplexed by per-sample barcodes, and the Divisive Amplicon Denoising Algorithm (DADA2) was used to correct the Illumina-sequenced amplicon read errors. […] The alpha and β diversity were calculated from samples containing at least 9.800 sequences. The alpha diversity parameter, a measure of the richness of the bacterial community, was calculated using the Shannon Index, and the beta diversity was assessed by a Jaccard similarity distance matrix. […]\nThe values in this paper were expressed as means and standard errors of the means (SEM). […] The results were analyzed by Analysis of Variance (ANOVA). […]"}},
  "note": "“Also recorded” adds a separate entry of the source. Like-named read-outs stand apart in the source and are kept apart here. Marks after values point to notes of the source that are not given here.",
  "data": [
    {"compound": "COc1cc(/C=C/c2ccc(O)cc2)cc(OC)c1", "note": "[5% Pterostilbene, Pterostilbene]", "values": [
      {"measurement": "Hb (g/dL)", "setting": "hemoglobin (Hb)", "value": "8.95 ± 0.77^a g/dL"},
      {"measurement": "Liver Iron (μg/g)", "setting": "[1]", "value": "37.43 ± 1.52 ^ab μg/g"},
      {"measurement": "Liver Zinc (μg/g)", "setting": "[1]", "value": "14.43 ± 0.49 ^b μg/g"},
      {"measurement": "Serum Iron (μg/g)", "setting": "[1]", "value": "2.94 ± 0.44 ^b μg/g"},
      {"measurement": "Serum Zinc (μg/g)", "setting": "[1]", "value": "1.33 ± 0.20 ^a μg/g"},
      {"measurement": "Body Weight Average (g)", "setting": "[2]", "value": "46.7 ± 0.7^a g"},
      {"measurement": "Cecum Weight Average (g)", "setting": "[2]", "value": "0.6 ± 0.1^a g"},
      {"measurement": "Cecum:Body Weight Ratio", "setting": "[2]", "value": "0.013 ± 0.001^a"},
      {"measurement": "Glycogen (mg/g)", "setting": "[3]", "value": "0.033 ± 0.010^a mg/g"},
      {"measurement": "Liver Ferritin (A.U.)", "setting": "Liver Ferritin", "value": "1.011 ± 0.351^bc A.U."},
      {"measurement": "Depth of Crypts (μm)", "setting": "[4]", "value": "66.41 ± 1.19^a μm"},
      {"measurement": "Mucus Layer Width (μm)", "setting": "[4]", "value": "3.76 ± 0.10^e μm"},
      {"measurement": "Villus Diameter (μm)", "setting": "[4]", "value": "81.33 ± 4.95^a μm"},
      {"measurement": "Villus Length (μm)", "setting": "[4]", "value": "451.58 ± 11.21^b μm"},
      {"measurement": "Crypt Goblet Cell Number", "setting": "[4]", "value": "10.04 ± 0.18 ^c"},
      {"measurement": "Goblet Cell Diameter (μM)", "setting": "[4]", "value": "7.81 ± 0.07 ^b μM"},
      {"measurement": "Villus Goblet Cell Type Number, Acidic", "setting": "[4]", "value": "10.78 ± 0.22 ^ab"},
      {"measurement": "Villus Goblet Cell Type Number, Mixed", "setting": "[4]", "value": "0.28 ± 0.05 ^b"},
      {"measurement": "Villus Goblet Cell Type Number, Neutral", "setting": "[4]", "value": "0.00 ± 0.00 ^b"},
      {"measurement": "bioavailability", "setting": "[5]", "value": 80, "unit": "%"},
      {"measurement": "bioavailability", "setting": "[5]; listed as pterostilbenes", "value": "about 80%"}
    ]},
    {"compound": "inulin [5% Inulin, reference compound]", "values": [
      {"measurement": "Hb (g/dL)", "setting": "hemoglobin (Hb)", "value": "8.86 ± 0.69^a g/dL"},
      {"measurement": "Liver Iron (μg/g)", "setting": "[1]", "value": "48.96 ± 4.39 ^a μg/g"},
      {"measurement": "Liver Zinc (μg/g)", "setting": "[1]", "value": "18.23 ± 0.88 ^ab μg/g"},
      {"measurement": "Serum Iron (μg/g)", "setting": "[1]", "value": "2.76 ± 0.33 ^b μg/g"},
      {"measurement": "Serum Zinc (μg/g)", "setting": "[1]", "value": "0.97 ± 0.08 ^bc μg/g"},
      {"measurement": "Body Weight Average (g)", "setting": "[2]", "value": "49.7 ± 0.9^a g"},
      {"measurement": "Cecum Weight Average (g)", "setting": "[2]", "value": "0.6 ± 0.1^a g"},
      {"measurement": "Cecum:Body Weight Ratio", "setting": "[2]", "value": "0.012 ± 0.001^a"},
      {"measurement": "Glycogen (mg/g)", "setting": "[3]", "value": "0.029 ± 0.005^a mg/g"},
      {"measurement": "Liver Ferritin (A.U.)", "setting": "Liver Ferritin", "value": "0.148 ± 0.005^c A.U."},
      {"measurement": "Depth of Crypts (μm)", "setting": "[4]", "value": "51.30 ± 1.07^b μm"},
      {"measurement": "Mucus Layer Width (μm)", "setting": "[4]", "value": "5.27 ± 0.13^c μm"},
      {"measurement": "Villus Diameter (μm)", "setting": "[4]", "value": "44.57 ± 0.79^d μm"},
      {"measurement": "Villus Length (μm)", "setting": "[4]", "value": "262.54 ± 3.76^d μm"},
      {"measurement": "Crypt Goblet Cell Number", "setting": "[4]", "value": "12.27 ± 0.33 ^a"},
      {"measurement": "Goblet Cell Diameter (μM)", "setting": "[4]", "value": "7.12 ± 0.06 ^d μM"},
      {"measurement": "Villus Goblet Cell Type Number, Acidic", "setting": "[4]", "value": "10.65 ± 0.25 ^ab"},
      {"measurement": "Villus Goblet Cell Type Number, Mixed", "setting": "[4]", "value": "0.02 ± 0.01 ^e"},
      {"measurement": "Villus Goblet Cell Type Number, Neutral", "setting": "[4]", "value": "0.00 ± 0.00 ^b"},
      {"measurement": "β diversity of the cecal microbiome (Jaccard distances), comparison between groups", "setting": "cecal microbiome", "value": "statistical differences; also recorded: differed"}
    ]}
  ]
}
